In patent US20250171462A1 (NICO Therapeutics, Inc., priority 2022, published 2025):
Like-named read-outs stand apart in the source and are kept apart here.

Molecular target: T1, full-length SARM1 (FL-SARM1) (Homo sapiens, UniProt Q6SZW1)
T1 sequence (Q6SZW1 28-724): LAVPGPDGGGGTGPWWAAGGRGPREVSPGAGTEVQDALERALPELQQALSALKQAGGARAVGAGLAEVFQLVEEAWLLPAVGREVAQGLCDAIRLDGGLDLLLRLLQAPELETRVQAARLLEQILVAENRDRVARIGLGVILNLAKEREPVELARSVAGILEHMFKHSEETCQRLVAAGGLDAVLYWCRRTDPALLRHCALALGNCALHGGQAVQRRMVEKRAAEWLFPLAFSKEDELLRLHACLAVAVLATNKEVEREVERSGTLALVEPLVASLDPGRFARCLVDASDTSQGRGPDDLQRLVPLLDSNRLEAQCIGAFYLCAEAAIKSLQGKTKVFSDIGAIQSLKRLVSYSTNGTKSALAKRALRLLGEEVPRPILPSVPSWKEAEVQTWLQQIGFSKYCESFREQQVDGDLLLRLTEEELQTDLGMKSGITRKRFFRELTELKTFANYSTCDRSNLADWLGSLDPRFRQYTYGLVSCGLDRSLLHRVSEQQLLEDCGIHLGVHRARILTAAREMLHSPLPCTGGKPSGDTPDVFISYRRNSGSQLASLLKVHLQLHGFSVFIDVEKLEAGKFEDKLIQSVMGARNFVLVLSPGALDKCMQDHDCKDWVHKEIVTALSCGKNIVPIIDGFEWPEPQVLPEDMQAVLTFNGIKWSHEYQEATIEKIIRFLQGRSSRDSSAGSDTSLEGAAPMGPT
Assay: FL-SARM1 cellular lysate assay (NAD/NADH-Glo detection of remaining NAD+, NMN-activated)

[1] = Activity (μM) (IC50), 11 point curve
[2] = read-out: Activity (IC50 class), 11 point curve
[3] = Activity (IC50 class), 11 point curve

SMILES: Cc1ccc(NC(=O)N2C3CCC2[C@@H](C)C3)cc1-c1ncc(F)cn1 (single isomer, unassigned) [Example 196, cis-N-(3-(5-fluoropyrimidin-2-yl)-4-methylphenyl)-2-methyl-7-azabicyclo[2.2.1]heptane-7-carboxamide]
- IC50 [1]: 0.8 µM
- IC50 [2]: 0.0001 to 1 µM

SMILES: Cc1ccc(NC(=O)[C@H]2C[C@H]3C[C@H]3N2c2ncccn2)cc1-c1ncc(F)cn1 [Example 267, (1R,3R,5R)-N-[3-(5-fluoropyrimidin-2-yl)-4-methylphenyl]-2-pyrimidin-2-yl-2-azabicyclo[3.1.0]hexane-3-carboxamide]
- IC50 [3]: 1 to 10 µM
- IC50 [1]: 3.1 µM

SMILES: CO[C@@H]1C[C@H](C(=O)Nc2ccc(C)c(-c3ncc(F)cn3)c2)N(c2ncccn2)C1 [Example 324]
- IC50 [3]: > 10 µM
- IC50 [1]: 17 µM

SMILES: Cc1ccc(NC(=O)C(Cc2ncccn2)C2CCC2)cc1-c1ncc(F)cn1 (racemic) [Example 302, 2-cyclobutyl-N-(3-(5-fluoropyrimidin-2-yl)-4-methylphenyl)-3-(pyrimidin-2-yl)propanamide]
- IC50 [3]: 1 to 10 µM
- IC50 [1]: 3 µM

SMILES: Cc1ccc(NC(=O)N2[C@@H]3C[C@@H](C)C[C@H]2C3)cc1-c1nccnc1C(F)(F)F [Example 229, cis-3-methyl-N-[4-methyl-3-[3-(trifluoromethyl)pyrazin-2-yl]phenyl]-6-azabicyclo[3.1.1]heptane-6-carboxamide]
- IC50 [1]: 0.2 µM
- IC50 [2]: 0.0001 to 1 µM

SMILES: Cc1ccc(NC(=O)N2C[C@H]3C[C@@H]2CN3c2ccccc2)cc1-c1ccccn1 [Example 38, (1R,4R)-N-(4-methyl-3-(pyridin-2-yl)phenyl)-5-phenyl-2,5-diazabicyclo[2.2.1]heptane-2-carboxamide]
- IC50 [3]: 1 to 10 µM
- IC50 [1]: 7.7 µM

SMILES: Cc1ccc(NC(=O)N2CC3CC(C)C2C3)cc1-c1ccccn1 (single isomer, unassigned) [Example 12, 6-methyl-N-(4-methyl-3-(pyridin-2-yl)phenyl)-2-azabicyclo[2.2.1]heptane-2-carboxamide]
- IC50 [3]: 1 to 10 µM
- IC50 [1]: 2 µM

SMILES: O=C(Nc1ccc(C(F)(F)F)c(-c2ncc(F)cn2)c1)N1C2CCCCC1C2 [Example 311, N-(3-(5-fluoropyrimidin-2-yl)-4-(trifluoromethyl)phenyl)-7-azabicyclo[4.1.1]octane-7-carboxamide]
- IC50 [1]: 0.1 µM
- IC50 [2]: 0.0001 to 1 µM

SMILES: Cc1ccc(NC(=O)[C@@H]2CC[C@@H](C3CC3)N2c2ccccn2)cc1-c1ncc(F)cn1 (racemic) [Example 274, trans-5-cyclopropyl-N-(3-(5-fluoropyrimidin-2-yl)-4-methylphenyl)-1-(pyridin-2-yl)pyrrolidine-2-carboxamide]
- IC50 [3]: 1 to 10 µM
- IC50 [1]: 1.2 µM

SMILES: Cc1cc(F)c(NC(=O)N2[C@@H]3C[C@@H](C)C[C@H]2C3)cc1-c1cccnn1 [Example 256, cis-N-(2-fluoro-4-methyl-5-pyridazin-3-ylphenyl)-3-methyl-6-azabicyclo[3.1.1]heptane-6-carboxamide]
- IC50 [1]: 0.1 µM
- IC50 [2]: 0.0001 to 1 µM

SMILES: Cc1ccc(NC(=O)N2C3CC2CN(c2ccn(C)n2)C3)cc1-c1ccccn1 [Example 85, 3-(1-methylpyrazol-3-yl)-N-(4-methyl-3-pyridin-2-ylphenyl)-3,6-diazabicyclo[3.1.1]heptane-6-carboxamide]
- IC50 [3]: > 10 µM
- IC50 [1]: 23 µM

SMILES: Cc1ccc(NC(=O)N2C3CCCCC2C3)cc1-c1ccccn1 [Example 23, N-(4-methyl-3-(pyridin-2-yl)phenyl)-7-azabicyclo[4.1.1]octane-7-carboxamide]
- IC50 [1]: 0.04 µM
- IC50 [2]: 0.0001 to 1 µM

SMILES: COC(C)[C@@]12CC(C[C@@H](C)C1)N2C(=O)Nc1ccc(C)c(-c2ncc(F)cn2)c1 (stereo partly drawn) [Example 190, cis-N-(3-(5-fluoropyrimidin-2-yl)-4-methylphenyl)-1-(1-methoxyethyl)-3-methyl-6-azabicyclo[3.1.1]heptane-6-carboxamide]
- IC50 [1]: 0.2 µM
- IC50 [2]: 0.0001 to 1 µM

SMILES: Cc1ccc(NC(=O)N2C3C[C@@H](C)C[C@H]2C3)cc1-c1cncc(Cl)n1 [Example 217, cis-N-(3-(6-chloropyrazin-2-yl)-4-methylphenyl)-3-methyl-6-azabicyclo[3.1.1]heptane-6-carboxamide]
- IC50 [1]: 0.04 µM
- IC50 [2]: 0.0001 to 1 µM

SMILES: Cc1ccc(NC(=O)N2C3CCC2c2ncccc23)cc1-c1ccccn1 (stereo not shown) [Example 100, N-(4-methyl-3-pyridin-2-ylphenyl)-3,11-diazatricyclo[6.2.1.02,7]undeca-2,4,6-triene-11-carboxamide]
- IC50 [1]: 0.6 µM
- IC50 [2]: 0.0001 to 1 µM

SMILES: Cc1ccc(NC(=O)N2C[C@@H]3CCC[C@@H]32)cc1-c1ncc(F)cn1 (racemic) [Example 222, N-[3-(5-fluoropyrimidin-2-yl)-4-methylphenyl]-6-azabicyclo[3.2.0]heptane-6-carboxamide]
- IC50 [3]: 1 to 10 µM
- IC50 [1]: 3.4 µM

SMILES: O=C(Nc1cccc(-c2ccccn2)c1)[C@@H]1CC1(F)F [Example 131, (1S)-2,2-difluoro-N-(3-pyridin-2-ylphenyl)cyclopropane-1-carboxamide]
- IC50 [3]: > 10 µM
- IC50 [1]: 18 µM

SMILES: CCc1ccc(-c2cc(NC(=O)[C@@H]3CC3(F)F)ccc2C)nc1 [Example 146, (1S)-N-[3-(5-ethylpyridin-2-yl)-4-methylphenyl]-2,2-difluorocyclopropane-1-carboxamide]
- IC50 [3]: 1 to 10 µM
- IC50 [1]: 7.3 µM

SMILES: Cc1ccc(NC(=O)[C@@H]2C[C@@H]2C2CC2)cc1-c1cccnn1 (racemic) [Example 284, cis-2-cyclopropyl-N-(4-methyl-3-pyridazin-3-ylphenyl)cyclopropane-1-carboxamide]
- IC50 [3]: 1 to 10 µM
- IC50 [1]: 1.8 µM

SMILES: Cc1ccc(NC(=O)N2C3C[C@H](C#N)C[C@@H]2C3)cc1-c1ccccn1 [Example 74, cis-3-cyano-N-(4-methyl-3-(pyridin-2-yl)phenyl)-6-azabicyclo[3.1.1]heptane-6-carboxamide]
- IC50 [1]: 0.3 µM
- IC50 [2]: 0.0001 to 1 µM

SMILES: O=C(Nc1ccc(OC(F)(F)F)c(-c2ccccn2)c1)N1C2CCCC1C2 [Example 59, N-(3-(pyridin-2-yl)-4-(trifluoromethoxy)phenyl)-6-azabicyclo[3.1.1]heptane-6-carboxamide]
- IC50 [1]: 0.6 µM
- IC50 [2]: 0.0001 to 1 µM

SMILES: Cc1ccc(NC(=O)C2CC23CCC3)cc1-c1cccnn1 (racemic) [Example 293, N-(4-methyl-3-pyridazin-3-ylphenyl)spiro[2.3] hexane-2-carboxamide]
- IC50 [3]: 1 to 10 µM
- IC50 [1]: 2.4 µM

SMILES: O=C(Nc1ccc(C(F)(F)F)c(-c2ccccn2)c1)N1C2CCCC1C2 [Example 18, N-(3-(pyridin-2-yl)-4-(trifluoromethyl)phenyl)-6-azabicyclo[3.1.1]heptane-6-carboxamide]
- IC50 [1]: 0.3 µM
- IC50 [2]: 0.0001 to 1 µM

SMILES: Cc1cc(F)c(NC(=O)N2CC3CC2c2ccccc23)cc1-c1cccnn1 (single isomer, unassigned) [Example 201, N-(2-fluoro-4-methyl-5-pyridazin-3-ylphenyl)-9-azatricyclo[6.2.1.02,7]undeca-2(7),3,5-triene-9-carboxamide]
- IC50 [3]: 1 to 10 µM
- IC50 [1]: 2 µM

SMILES: COc1ccc(-c2cc(NC(=O)[C@@H]3CC3(F)F)ccc2C)nc1 [Example 152, (1S)-2,2-difluoro-N-[3-(5-methoxypyridin-2-yl)-4-methylphenyl]cyclopropane-1-carboxamide]
- IC50 [3]: 1 to 10 µM
- IC50 [1]: 3.6 µM

SMILES: Cc1ccc(NC(=O)CC2CCC2)cc1-c1ccc(F)cn1 [Example 164, 2-cyclobutyl-N-[3-(5-fluoropyridin-2-yl)-4-methylphenyl]acetamide]
- IC50 [3]: 1 to 10 µM
- IC50 [1]: 1.4 µM

SMILES: Cc1ccc(NC(=O)C2CCC3(CC3)CN2c2ccccn2)cc1-c1ncc(F)cn1 (racemic) [Example 314]
- IC50 [3]: 1 to 10 µM
- IC50 [1]: 1.2 µM

SMILES: Cc1ccc(NC(=O)C2C3CCC2CC3)cc1-c1ncccn1 (stereo not shown) [Example 106, N-(4-methyl-3-pyrimidin-2-ylphenyl)bicyclo[2.2.1]heptane-7-carboxamide]
- IC50 [3]: 1 to 10 µM
- IC50 [1]: 1 µM

SMILES: Cc1ccc(NC(=O)N2C3CCCC2C3)cc1-c1ncc(F)c(C)n1 [Example 326]
- IC50 [3]: 1 to 10 µM
- IC50 [1]: 1.4 µM

SMILES: Cc1ccc(NC(=O)N2[C@@H]3CC(C)C[C@H]2C3)cc1-c1ncccc1C (mixture of isomers) [Example 31, 3-methyl-N-(4-methyl-3-(3-methylpyridin-2-yl)phenyl)-6-azabicyclo[3.1.1]heptane-6-carboxamide]
- IC50 [1]: 0.8 µM
- IC50 [2]: 0.0001 to 1 µM

SMILES: Cc1ccc(NC(=O)N2CCCC2c2ccn(C)n2)cc1-c1ccccn1 (racemic) [Example 88, 2-(1-methylpyrazol-3-yl)-N-(4-methyl-3-pyridin-2-ylphenyl)pyrrolidine-1-carboxamide]
- IC50 [3]: > 10 µM
- IC50 [1]: 11 µM

SMILES: CC1CCCCCN1C(=O)Nc1ccc(C(F)(F)F)c(-c2ncc(F)cn2)c1 (racemic) [Example 312, N-(3-(5-fluoropyrimidin-2-yl)-4-(trifluoromethyl)phenyl)-2-methylazepane-1-carboxamide]
- IC50 [3]: 1 to 10 µM
- IC50 [1]: 1.4 µM
